Like-named read-outs stand apart in the source and are kept apart here.
Legend:
Plasmopara viticola = assay: whole plant or invertebrate; format: in vivo; conditions: foliar, read-out: disease control
Pythium ultimum = Pythium ultimum / liquid culture (seedling damping off); format: cell-based; conditions: Globisporangium ultimum, read-out: disease control (inhibition of growth determined photometrically)
[1] = test system: Monographella nivalis (Microdochium nivale); assay: Monographella nivalis (Microdochium nivale) / liquid culture (foot rot cereals); format: cell-based; conditions: PDB potato dextrose broth, 24° C., 4-5 days after application, read-out: disease control (inhibition of growth determined photometrically)
Gaeumannomyces graminis = Gaeumannomyces graminis / liquid culture (take-all of cereals); format: cell-based; conditions: PDB potato dextrose broth, 24° C., 4-5 days after application, read-out: disease control (inhibition of growth determined photometrically)
Protocol: 14. Gaeumannomyces graminis/Liquid Culture (Take-all of Cereals): Mycelial fragments of the fungus from cryogenic storage were directly mixed into nutrient broth (PDB potato dextrose broth). After placing a DMSO solution of test compound into a 96-well microtiter plate at an application rate of 200 ppm, the nutrient broth […], containing the fungal spores is added. The test plates were incubated at 24° C. and the inhibition of growth was determined photometrically 4-5 days after application.

[2] = test system: Thanatephorus cucumeris (Rhizoctonia solani); assay: Thanatephorus cucumeris (Rhizoctonia solani) / liquid culture (foot rot, damping-off); format: cell-based; conditions: PDB potato dextrose broth, 24° C., 3-4 days after application, read-out: disease control (inhibition of growth determined photometrically)
Protocol: 17. Thanatephorus cucumeris (Rhizoctonia solani)/Liquid Culture (Foot Rot, Damping-Off): Mycelia fragments of a newly grown liquid culture of the fungus were directly mixed into nutrient broth (PDB potato dextrose broth). After placing a DMSO solution of the test compounds into a 96-well microtiter plate at an application rate of 200 ppm, the nutrient broth containing the fungal material was added. The test plates were incubated at 24° C. and the inhibition of growth was determined photometrically 3-4 days after application.

[3] = 200 ppm, potato dextrose broth, 24° C., 2-3 days after application

Compound	pest or weed control at 200 ppm (Plasmopara viticola) [%]	inhibition at 200 ppm (Pythium ultimum; [3]) [%]	also measured
O=C(NCc1ccccc1F)c1cc2c(cc1Cl)COB2O [Compound 73]	≥ 80	≥ 80	
O=C(NCc1ccccc1OC(F)(F)F)c1cc2c(cc1Cl)COB2O [Compound 95]	≥ 80		inhibition at 200 ppm [1]: ≥ 80%
O=C(NCCc1c[nH]c2ccccc12)c1cc2c(cc1Cl)COB2O [Compound 97]		≥ 80	inhibition at 200 ppm (Gaeumannomyces graminis): ≥ 80%
O=C(NCc1ccccc1C(F)(F)F)c1cc2c(cc1Cl)COB2O [Compound 99]		≥ 80	inhibition at 200 ppm [1]: ≥ 80%
O=C(NCc1ccc(Oc2ccccc2)cc1)c1cc2c(cc1Cl)COB2O [Compound 103]	≥ 80	≥ 80	inhibition at 200 ppm [1]: ≥ 80%; inhibition at 200 ppm (Gaeumannomyces graminis): ≥ 80%
CC(NC(=O)c1cc2c(cc1F)COB2O)c1ccccc1 (stereo not drawn) [Compound 109]	≥ 80	≥ 80	
O=C(Nc1ccc(-n2cccc2)cc1)c1cc2c(cc1Cl)COB2O [Compound 125]		≥ 80	inhibition at 200 ppm (Gaeumannomyces graminis): ≥ 80%
Cc1cc(=O)oc2cc(NC(=O)c3cc4c(cc3Cl)COB4O)ccc12 [Compound 139]		≥ 80	inhibition at 200 ppm (Gaeumannomyces graminis): ≥ 80%
O=C(Nc1ccc(S(=O)(=O)Nc2ccccn2)cc1)c1cc2c(cc1Cl)COB2O [Compound 143]	≥ 80	≥ 80	
Cc1ccccc1NC(=O)c1cc2c(cc1F)COB2O [Compound 148]		≥ 80	inhibition at 200 ppm [2]: ≥ 80%
COc1ccc(NC(=O)c2cc3c(cc2F)COB3O)c(OC)c1 [Compound 155]	≥ 80	≥ 80	
O=C(Nc1cccc(F)c1)c1cc2c(cc1F)COB2O [Compound 157]		≥ 80	inhibition at 200 ppm (Gaeumannomyces graminis): ≥ 80%
O=C(Nc1ccccc1N1CCOCC1)c1cc2c(cc1F)COB2O [Compound 170]	≥ 80	≥ 80	
O=C(Nc1ccc(S(=O)(=O)Nc2ccccn2)cc1)c1cc2c(cc1F)COB2O [Compound 174]	≥ 80	≥ 80	
Cc1nnc(NC(=O)c2cc3c(cc2F)COB3O)s1 [Compound 184]	≥ 80	≥ 80	
O=C(Nc1ccc(Oc2ccccc2)nc1)c1cc2c(cc1F)COB2O [Compound 185]	≥ 80	≥ 80	
O=C(OCCc1ccc(Cl)cc1Cl)c1cc2c(cc1Cl)COB2O [Compound 190]			inhibition at 200 ppm [1]: ≥ 80%; inhibition at 200 ppm (Gaeumannomyces graminis): ≥ 80%
O=C(OCc1ccc(C(F)(F)F)cc1Cl)c1cc2c(cc1Cl)COB2O [Compound 200]			inhibition at 200 ppm [1]: ≥ 80%; inhibition at 200 ppm (Gaeumannomyces graminis): ≥ 80%
O=C(OCc1ccco1)c1cc2c(cc1Cl)COB2O [Compound 210]		≥ 80	inhibition at 200 ppm (Gaeumannomyces graminis): ≥ 80%; inhibition at 200 ppm [2]: ≥ 80%
N#CCOC(=O)c1cc2c(cc1Cl)COB2O [Compound 213]	≥ 80	≥ 80	
C=CCC(OC(=O)c1cc2c(cc1Cl)COB2O)C(=O)OC (stereo not drawn) [Compound 222]		≥ 80	inhibition at 200 ppm [1]: ≥ 80%; inhibition at 200 ppm [2]: ≥ 80%
O=C(NCc1ccccc1F)c1ccc2c(c1)B(O)OC2 [Compound 262]	≥ 80	≥ 80	

Compound	pest or weed control at 200 ppm (Plasmopara viticola) [%]	inhibition at 200 ppm (Pythium ultimum; [3]) [%]	also measured
O=C(NCc1cccc(Cl)c1)c1ccc2c(c1)B(O)OC2 [Compound 268]	≥ 80	≥ 80	
O=C(NCc1ccccc1OC(F)(F)F)c1ccc2c(c1)B(O)OC2 [Compound 273]	≥ 80	≥ 80	
O=C(NCCN1CCN(Cc2ccccc2)CC1)c1ccc2c(c1)B(O)OC2 [Compound 278]		≥ 80	
CC(C)c1ccc(NC(=O)c2ccc3c(c2)B(O)OC3)cc1 [Compound 279]	≥ 80	≥ 80	inhibition at 200 ppm [1]: ≥ 80%
Cc1cccc(Cl)c1NC(=O)c1ccc2c(c1)B(O)OC2 [Compound 281]		≥ 80	
COc1ccc(NC(=O)c2ccc3c(c2)B(O)OC3)c(OC)c1 [Compound 283]	≥ 80	≥ 80	
O=C(Nc1cccc(F)c1)c1ccc2c(c1)B(O)OC2 [Compound 285]	≥ 80	≥ 80	
O=C(Nc1ccc(-n2cccc2)cc1)c1ccc2c(c1)B(O)OC2 [Compound 287]		≥ 80	
COC(=O)c1cc2cc(NC(=O)c3ccc4c(c3)B(O)OC4)ccc2s1 [Compound 288]		≥ 80	
COc1ccc(-c2ccccc2)cc1NC(=O)c1ccc2c(c1)B(O)OC2 [Compound 289]	≥ 80	≥ 80	
O=C(Nc1cc(C(F)(F)F)ccc1N1CCOCC1)c1ccc2c(c1)B(O)OC2 [Compound 291]			inhibition at 200 ppm (Gaeumannomyces graminis): ≥ 80%
O=C(Nc1ccccc1-c1cc2ccccc2[nH]1)c1ccc2c(c1)B(O)OC2 [Compound 292]	≥ 80	≥ 80	inhibition at 200 ppm (Gaeumannomyces graminis): ≥ 80%
O=C(Nc1ccccc1N1CCOCC1)c1ccc2c(c1)B(O)OC2 [Compound 293]		≥ 80	
CN(C)S(=O)(=O)c1ccc(NC(=O)c2ccc3c(c2)B(O)OC3)cc1 [Compound 295]		≥ 80	
O=C(Nc1ccc(S(=O)(=O)Nc2ccccn2)cc1)c1ccc2c(c1)B(O)OC2 [Compound 296]		≥ 80	
Cc1cc(O)nc(NC(=O)c2ccc3c(c2)B(O)OC3)n1 [Compound 299]		≥ 80	
O=C(Nc1ccc2ccccc2n1)c1ccc2c(c1)B(O)OC2 [Compound 300]		≥ 80	
Cc1onc(-c2ccccc2)c1NC(=O)c1ccc2c(c1)B(O)OC2 [Compound 301]		≥ 80	
O=C(Nc1cc(-c2ccccc2)[nH]n1)c1ccc2c(c1)B(O)OC2 [Compound 303]		≥ 80	
Cc1nnc(NC(=O)c2ccc3c(c2)B(O)OC3)s1 [Compound 305]		≥ 80	
O=C(Nc1ccc(Oc2ccccc2)nc1)c1ccc2c(c1)B(O)OC2 [Compound 306]	≥ 80	≥ 80	
COC(=O)c1sccc1NC(=O)c1ccc2c(c1)B(O)OC2 [Compound 308]	≥ 80		inhibition at 200 ppm [1]: ≥ 80%

Compound	pest or weed control at 200 ppm (Plasmopara viticola) [%]	inhibition at 200 ppm (Pythium ultimum; [3]) [%]	also measured
Cc1cc(C)c2c(NC(=O)c3ccc4c(c3)B(O)OC4)[nH]nc2n1 [Compound 309]		≥ 80	
CC(C#N)OC(=O)c1ccc2c(c1)B(O)OC2 (stereo not drawn) [Compound 315]		≥ 80	inhibition at 200 ppm [2]: ≥ 80%
C[Si](C)(C)CCCOC(=O)c1ccc2c(c1)B(O)OC2 [Compound 316]		≥ 80	inhibition at 200 ppm [1]: ≥ 80%; inhibition at 200 ppm (Gaeumannomyces graminis): ≥ 80%; inhibition at 200 ppm [2]: ≥ 80%
CC(CN1CCOCC1)OC(=O)c1ccc2c(c1)B(O)OC2 (stereo not drawn) [Compound 322]		≥ 80	
CC(F)COC(=O)c1ccc2c(c1)B(O)OC2 (stereo not drawn) [Compound 335]	≥ 80	≥ 80	inhibition at 200 ppm [2]: ≥ 80%
O=C(OCCCC(=O)N1CCCC1)c1ccc2c(c1)B(O)OC2 [Compound 346]		≥ 80	
N#CCCOC(=O)c1ccc2c(c1)B(O)OC2 [Compound 357]	≥ 80	≥ 80	
CS(=O)(=O)CCOC(=O)c1ccc2c(c1)B(O)OC2 [Compound 358]		≥ 80	
O=C(OC1COC1)c1ccc2c(c1)B(O)OC2 [Compound 363]		≥ 80	
C=CC(=O)OCC(C)OC(=O)c1cc2c(cc1F)COB2O (stereo not drawn) [Compound 372]		≥ 80	inhibition at 200 ppm [1]: ≥ 80%
CC(C#N)OC(=O)c1cc2c(cc1F)COB2O (stereo not drawn) [Compound 376]	≥ 80	≥ 80	
CC(CN1CCOCC1)OC(=O)c1cc2c(cc1F)COB2O (stereo not drawn) [Compound 383]		≥ 80	
O=C(OCCCC(=O)N1CCCC1)c1cc2c(cc1F)COB2O [Compound 408]		≥ 80	
COP(=O)(CCOC(=O)c1cc2c(cc1F)COB2O)OC [Compound 416]			inhibition at 200 ppm (Pythium ultimum): ≥ 80%
N#CCCOC(=O)c1cc2c(cc1F)COB2O [Compound 420]	≥ 80	≥ 80	
CS(=O)(=O)CCOC(=O)c1cc2c(cc1F)COB2O [Compound 421]		≥ 80	
O=C(OC1COC1)c1cc2c(cc1F)COB2O [Compound 425]	≥ 80	≥ 80	inhibition at 200 ppm (Gaeumannomyces graminis): ≥ 80%
O=C(OC1CCOC1)c1cc2c(cc1F)COB2O (stereo not drawn) [Compound 426]		≥ 80	
O=C(OC1CCOCC1)c1cc2c(cc1F)COB2O [Compound 428]		≥ 80	
O=C(OCCC(F)(F)F)c1cc2c(cc1F)COB2O [Compound 431]		≥ 80	inhibition at 200 ppm [1]: ≥ 80%; inhibition at 200 ppm (Gaeumannomyces graminis): ≥ 80%; inhibition at 200 ppm [2]: ≥ 80%
COCCOCCOCCOC(=O)c1cc2c(cc1F)COB2O [Compound 432]		≥ 80	

— US20170000133A1, “BENZOXABOROLE FUNGICIDES” (SYNGENTA PARTICIPATIONS AG, priority 2013, published 2017)
